pEC50: −log10 of the molar value.
Each compound was assayed against T1, hFXR (Homo sapiens, UniProt Q96RI1) (assay: In Vitro FXR Assay (TK): TK-ECRE-luc reporter in transfected CV-1 cells). Conditions: 18 hrs, luminescence, maximum efficacy of <25% of the Fexarmine control classified as '+'.
T1 construct: expressed in transfected cells; host or cells: CV-1 cells
T1 sequence (Q96RI1 1-486): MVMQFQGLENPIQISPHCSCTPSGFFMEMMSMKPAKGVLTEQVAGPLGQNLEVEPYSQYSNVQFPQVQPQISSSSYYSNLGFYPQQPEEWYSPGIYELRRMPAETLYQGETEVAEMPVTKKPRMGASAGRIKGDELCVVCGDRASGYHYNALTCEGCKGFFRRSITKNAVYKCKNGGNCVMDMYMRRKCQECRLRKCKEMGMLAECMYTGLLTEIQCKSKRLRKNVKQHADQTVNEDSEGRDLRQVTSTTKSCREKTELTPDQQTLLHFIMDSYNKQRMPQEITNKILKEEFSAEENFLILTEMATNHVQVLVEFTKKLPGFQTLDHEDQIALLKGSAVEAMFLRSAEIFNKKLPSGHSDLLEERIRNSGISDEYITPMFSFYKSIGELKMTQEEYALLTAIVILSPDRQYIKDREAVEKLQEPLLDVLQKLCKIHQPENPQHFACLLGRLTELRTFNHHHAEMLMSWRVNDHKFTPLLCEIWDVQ
T1 sequence (P19793 1-462 partner): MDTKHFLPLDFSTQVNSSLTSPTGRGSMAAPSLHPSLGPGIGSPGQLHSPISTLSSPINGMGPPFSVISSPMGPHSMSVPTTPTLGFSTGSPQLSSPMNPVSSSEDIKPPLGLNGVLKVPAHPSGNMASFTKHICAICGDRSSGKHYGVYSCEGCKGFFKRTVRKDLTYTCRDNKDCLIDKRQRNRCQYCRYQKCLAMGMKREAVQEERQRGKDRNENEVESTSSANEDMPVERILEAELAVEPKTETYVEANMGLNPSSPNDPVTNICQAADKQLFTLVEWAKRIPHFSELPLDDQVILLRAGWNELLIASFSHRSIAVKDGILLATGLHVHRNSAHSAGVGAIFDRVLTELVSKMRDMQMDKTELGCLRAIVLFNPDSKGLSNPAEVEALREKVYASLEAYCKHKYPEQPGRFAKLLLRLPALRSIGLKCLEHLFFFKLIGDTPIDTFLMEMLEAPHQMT
Format: cell-based
How it was run: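 Cells are seeded in charcoal double-stripped FBS medium, transfected overnight with FXR/RXR expression and ECRE-driven luciferase reporter plasmids, then treated with serially diluted compounds for 18 h. Lysates are measured for luciferase light output.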

Q: `COc1ccc([C@H]2CC[C@H](CN(c3cccc(-c4cnn(C5CC5)c4)c3)C(=O)[C@H]3CC[C@H](OC(=O)N4CC(CC(=O)O)C4)CC3)CC2)cc1C` [Compound 7.42, 2-(1-(((trans-4-((3-(1-Cyclopropyl-1H-pyrazol-4-yl)phenyl)((trans-4-(4-methoxy-3-methylphenyl)cyclohexyl)methyl)carbamoyl)cyclohexyl)oxy)carbonyl)azetidin-3-yl)acetic acid] was tested. Which pEC50 did it give?
A: ≥ 6.60

Q: `COc1ccc([C@H]2CC[C@H](CN(c3cccc(-c4cnn(C(C)C)c4)c3)C(=O)[C@H]3CC[C@H](OC(=O)N4CC(O)C4)CC3)CC2)nc1C#N` [Compound 7.43, trans-4-(((trans-4-(6-Cyano-5-methoxypyridin-2-yl)cyclohexyl)methyl)(3-(1-isopropyl-1H-pyrazol-4-yl)phenyl)carbamoyl)cyclohexyl 3-hydroxyazetidine-1-carboxylate] was tested. Which pEC50 did it give?
A: ≥ 6.60

Q: `COc1ccc([C@H]2CC[C@H](CN(c3cc(-c4cnn(C(C)C)c4)ccn3)C(=O)[C@H]3CC[C@H](OC(=O)NC(C)C)CC3)CC2)nc1C` [Compound 7.44, trans-4-((4-(1-Isopropyl-1H-pyrazol-4-yl)pyridin-2-yl)((trans-4-(5-methoxy-6-methylpyridin-2-yl)cyclohexyl)methyl)carbamoyl)cyclohexyl isopropylcarbamate] was tested. Which pEC50 did it give?
A: ≥ 6.60

Q: `COc1ccc([C@H]2CC[C@H](CN(c3cc(-c4cnn(C(C)C)c4)ccn3)C(=O)[C@H]3CC[C@H](OC(=O)N(C)C)CC3)CC2)cc1C#N` [Compound 7.45, trans-4-(((trans-4-(3-Cyano-4-methoxyphenyl)cyclohexyl)methyl)(4-(1-isopropyl-1H-pyrazol-4-yl)pyridin-2-yl)carbamoyl)cyclohexyl dimethylcarbamate] was tested. Which pEC50 did it give?
A: ≥ 6.60

Q: With `COc1ccc([C@H]2CC[C@H](CN(c3cc(-c4cnn(C(C)C)c4)ccn3)C(=O)[C@H]3CC[C@H](OC(=O)N4CCC4)CC3)CC2)cc1C#N` [Compound 7.46, trans-4-(((trans-4-(3-Cyano-4-methoxyphenyl)cyclohexyl)methyl)(4-(1-isopropyl-1H-pyrazol-4-yl)pyridin-2-yl)carbamoyl)cyclohexyl azetidine-1-carboxylate] as the compound, how does the pEC50 read?
A: ≥ 6.60

Q: How did the pEC50 turn out when `CCC1CN(C(=O)O[C@H]2CC[C@H](C(=O)N(C[C@H]3CC[C@H](c4ccc(OC)c(C#N)c4)CC3)c3cc(-c4cnn(C(C)C)c4)ccn3)CC2)C1` [Compound 7.47, trans-4-(((trans-4-(3-Cyano-4-methoxyphenyl)cyclohexyl)methyl)(4-(1-isopropyl-1H-pyrazol-4-yl)pyridin-2-yl)carbamoyl)cyclohexyl 3-ethylazetidine-1-carboxylate] was run?
A: ≥ 6.60

Q: `COc1ccc([C@H]2CC[C@H](CN(c3cc(-c4cnn(C(C)C)c4)ccn3)C(=O)[C@H]3CC[C@H](OC(=O)N4CC(OC)C4)CC3)CC2)cc1C#N` [Compound 7.48, trans-4-(((trans-4-(3-Cyano-4-methoxyphenyl)cyclohexyl)methyl)(4-(1-isopropyl-1H-pyrazol-4-yl)pyridin-2-yl)carbamoyl)cyclohexyl 3-methoxyazetidine-1-carboxylate] was tested. Which pEC50 did it give?
A: ≥ 6.60

Q: `COc1ccc([C@H]2CC[C@H](CN(c3cc(-c4cnn(C(C)C)c4)ccn3)C(=O)[C@H]3CC[C@H](OC(=O)N4CC(OC(C)C)C4)CC3)CC2)cc1C#N` [Compound 7.49, trans-4-(((trans-4-(3-Cyano-4-methoxyphenyl)cyclohexyl)methyl)(4-(1-isopropyl-1H-pyrazol-4-yl)pyridin-2-yl)carbamoyl)cyclohexyl 3-isopropoxyazetidine-1-carboxylate] was tested. Which pEC50 did it give?
A: ≥ 6.60

Q: How did the pEC50 turn out when `COc1ccc([C@H]2CC[C@H](CN(c3cc(-c4cnn(C(C)C)c4)ccn3)C(=O)[C@H]3CC[C@H](OC(=O)N4CC(N(C)C)C4)CC3)CC2)cc1C#N` [Compound 7.50, trans-4-(((trans-4-(3-Cyano-4-methoxyphenyl)cyclohexyl)methyl)(4-(1-isopropyl-1H-pyrazol-4-yl)pyridin-2-yl)carbamoyl)cyclohexyl 3-(dimethylamino)azetidine-1-carboxylate] was run?
A: ≥ 6.60

Q: `COc1ccc([C@H]2CC[C@H](CN(c3cc(-c4cnn(C(C)C)c4)ccn3)C(=O)[C@H]3CC[C@H](OC(=O)N4CC(CO)C4)CC3)CC2)cc1C#N` [Compound 7.51, trans-4-(((trans-4-(3-Cyano-4-methoxyphenyl)cyclohexyl)methyl)(4-(1-isopropyl-1H-pyrazol-4-yl)pyridin-2-yl)carbamoyl)cyclohexyl 3-(hydroxymethyl)azetidine-1-carboxylate] was tested. Which pEC50 did it give?
A: ≥ 6.60

Q: How did the pEC50 turn out when `COc1ccc([C@H]2CC[C@H](CN(c3cccc(-c4cnn(C(C)C)c4)c3)C(=O)[C@H]3CC[C@H](OC(=O)N4CC(OC)C4)CC3)CC2)nc1C` [Compound 7.52, trans-4-((3-(1-Isopropyl-1H-pyrazol-4-yl)phenyl)((trans-4-(5-methoxy-6-methylpyridin-2-yl)cyclohexyl)methyl)carbamoyl)cyclohexyl 3-methoxyazetidine-1-carboxylate] was run?
A: ≥ 6.60

Q: How did the pEC50 turn out when `COc1ccc([C@H]2CC[C@H](CN(c3cccc(-c4cnn(C(C)C)c4)c3)C(=O)[C@H]3CC[C@H](OC(=O)N4CC(N(C)C)C4)CC3)CC2)nc1C` [Compound 7.53, trans-4-((3-(1-Isopropyl-1H-pyrazol-4-yl)phenyl)((trans-4-(5-methoxy-6-methylpyridin-2-yl)cyclohexyl)methyl)carbamoyl)cyclohexyl 3-(dimethylamino)azetidine-1-carboxylate] was run?
A: ≥ 6.60

Q: `CCC1CN(C(=O)O[C@H]2CC[C@H](C(=O)N(C[C@H]3CC[C@H](c4ccc(OC)c(C)n4)CC3)c3cc(-c4cnn(C(C)C)c4)ccn3)CC2)C1` [Compound 7.54, trans-4-((4-(1-Isopropyl-1H-pyrazol-4-yl)pyridin-2-yl)((trans-4-(5-methoxy-6-methylpyridin-2-yl)cyclohexyl)methyl)carbamoyl)cyclohexyl 3-ethylazetidine-1-carboxylate] was tested. Which pEC50 did it give?
A: ≥ 6.60

Q: With `COc1ccc([C@H]2CC[C@H](CN(c3cc(-c4cnn(C(C)C)c4)ccn3)C(=O)[C@H]3CC[C@H](OC(=O)N4CC(OC)C4)CC3)CC2)nc1C` [Compound 7.55, trans-4-((4-(1-Isopropyl-1H-pyrazol-4-yl)pyridin-2-yl)((trans-4-(5-methoxy-6-methylpyridin-2-yl)cyclohexyl)methyl)carbamoyl)cyclohexyl 3-methoxyazetidine-1-carboxylate] as the compound, how does the pEC50 read?
A: ≥ 6.60

Q: How did the pEC50 turn out when `COc1ccc([C@H]2CC[C@H](CN(c3cc(-c4cnn(C(C)C)c4)ccn3)C(=O)[C@H]3CC[C@H](OC(=O)N4CC(OC(C)C)C4)CC3)CC2)nc1C` [Compound 7.56, trans-4-((4-(1-Isopropyl-1H-pyrazol-4-yl)pyridin-2-yl)((trans-4-(5-methoxy-6-methylpyridin-2-yl)cyclohexyl)methyl)carbamoyl)cyclohexyl 3-isopropoxyazetidine-1-carboxylate] was run?
A: ≥ 6.60

Q: How did the pEC50 turn out when `COc1ccc([C@H]2CC[C@H](CN(c3cc(-c4cnn(C(C)C)c4)ccn3)C(=O)[C@H]3CC[C@H](OC(=O)N4CC(C(C)C)C4)CC3)CC2)nc1C` [Compound 7.57, trans-4-((4-(1-Isopropyl-1H-pyrazol-4-yl)pyridin-2-yl)((trans-4-(5-methoxy-6-methylpyridin-2-yl)cyclohexyl)methyl)carbamoyl)cyclohexyl 3-isopropylazetidine-1-carboxylate] was run?
A: ≥ 6.60

From patent US20220089575A1, “FARNESOID X RECEPTOR AGONISTS AND USES THEREOF” (Metacrine, Inc., priority 2017, published 2022)
